Read-outs that look alike come from different tables or passages of the source.
What was measured:
HEp-2 cells = test: Cytotoxicity assay (PrestoBlue) in HEp-2 cells; assay type: cell-based, human; conditions: for cytotoxicity: FIG. 24; for CC50: HEp-2 cells, 48-hour incubation, max concentration tested
Protocol: (§1) To determine the effect of compound on cell metabolism, HEp-2 cells were seeded at 50% confluence in 96-well plates and were incubated with 3-fold serial dilution of compound from 5 or 50 μM as described, including positive and negative controls for normalization. After 48-hour incubation at 37° C., cells were incubated with PrestoBlue (ThermoFisher Scientific) for 1 hour at 37° C. and fluorescence measured with a H1 synergy plate reader (Biotek).
(§2) After 48-hour incubation at 37° C., cells were incubated with PrestoBlue (ThermoFisher Scientific, cat #A-13262) for 1 h at 37° C. and fluorescence measured with a H1 synergy plate reader (BioTek).

recRSV-fireSMASh [1] = test: microbe, parasite or virus in culture; assay type: cell-based; conditions: human respiratory syncytial virus, HAE, read-out: “F1” HAE C50 (first)
recRSV-fireSMASh [2] = test: microbe, parasite or virus in culture; assay type: cell-based; conditions: human respiratory syncytial virus, HAE, read-out: “M4” HAE C50 (first)
“F1” HAE = conditions: “F1” donor primary HAE cells
“M4” HAE = conditions: “M4” donor primary HAE cells
[3] = Cytotoxicity assay (PrestoBlue) in HEp-2 cells; assay type: cell-based, human; conditions: human; HEp-2 cells, 48-hour incubation; max concentration tested
Protocol: as §1, §2

recRSV-fireSMASh L1502Q = test: microbe, parasite or virus in culture; assay type: cell-based; conditions: human respiratory syncytial virus; recombinant recRSV-fireSMASh, HEp-2, RSV L L1502Q
recRSV-fireSMASh Y1631H = test: microbe, parasite or virus in culture; assay type: cell-based; conditions: human respiratory syncytial virus; recombinant recRSV-fireSMASh, HEp-2, RSV L Y1631H
recRSV-fireSMASh H1632Q = test: microbe, parasite or virus in culture; assay type: cell-based; conditions: human respiratory syncytial virus; recombinant recRSV-fireSMASh, HEp-2, RSV L H1632Q
[4] = system: recRSV-mKate harboring L1502Q; assay type: cell-based; conditions: recRSV with LL1502Q relative to L WT
recRSV-mKate [5] = test: microbe, parasite or virus in culture; assay type: cell-based; conditions: 3D-HAE, progeny virus titers six days after infection, read-out: half-maximal effective concentration (EC50)
[6] = 100 μM, previous studies; cited from earlier work
recRSV-A2line19F-[mKate] = test: In vivo efficacy in RSV-infected mice (lung viral titer); conditions: for in vivo lung titer reduction in RSV-infected mice: oral gavage twice daily from 10 h post-infection, lungs 4.5 days after infection; for Lung viral load reduction (log10 TCID50/ml) relative to vehicle-treated: 50 mg/kg bid, therapeutic treatment 10 hours after infection, 4.5 days post-infection
Protocol: For efficacy studies, mice were randomly divided into groups (n=5) and infected intranasally with 5×10^5 TCID50 (25 μl per nare) of recRSV-A2line19F-[mKate] in PBS while under anesthesia with ketamine/xylazine. Treatment (compound or vehicle) was administrated at 10 h post-infection via oral gavage in a 200 μl suspension of 1% methylcellulose and administrated twice daily. Temperature and food consumption were monitored daily, body weight was determined twice daily. All animals were euthanized at 4.5 days after infection and lungs were harvested. To determine lung viral titers, lungs were weighted and homogenized with a bead beater in 300 μl PBS in 3 bursts of 20 seconds by 5-minute rest on ice after each cycle. Samples were clarified for 5 minutes at 4° C. and 20,000×g, supernatant aliquoted and stored at −80° C. before being titrated by median tissue culture infectious dose (TCID50) normalized per gram of lung tissue and per ml of lysate. RSV viral titers were determined using standard 50% tissue infective dose (TCID50) assay in HEp-2 cells and 96 well plates, with a Spearman and Karber based method using fluorescence for detection.
Mice were divided randomly into groups of 5, and infected intranasally with 500,000 TCID50 (25 μl/nare) of recRSV-mKate in Phosphate-Buffered Saline. Mice were anesthetized with ketamine/xylazine. Treatments were administrated via oral gavage in a 200 μl suspension of 1% Methylcellulose in water. Temperature and body weight were determined on a daily and twice-daily basis, respectively. Efficacy studies were terminated at peak viral replication at 4.5 days post-infection, mice were euthanized and lungs harvested and weighted. Lung viral titers were determined after tissue homogenization with a bead beater with 300 μl PBS (3 bursts of 30 seconds at 4° C., separated by 30-second rest at 4° C.). Homogenates were clarified (5 minutes at 4° C. and 20,000×g), aliquoted and stored at −80° C. until titration. Viral titers were determined by median tissue culture infectious dose (TCID50) titration, adjusted to weight (g) of lung tissue.

measles virus polymerase = measles virus polymerase (Measles virus, UniProt P12576); conditions: found previously (45); cited from earlier work
Chain of measles virus polymerase (P03422 whole entry): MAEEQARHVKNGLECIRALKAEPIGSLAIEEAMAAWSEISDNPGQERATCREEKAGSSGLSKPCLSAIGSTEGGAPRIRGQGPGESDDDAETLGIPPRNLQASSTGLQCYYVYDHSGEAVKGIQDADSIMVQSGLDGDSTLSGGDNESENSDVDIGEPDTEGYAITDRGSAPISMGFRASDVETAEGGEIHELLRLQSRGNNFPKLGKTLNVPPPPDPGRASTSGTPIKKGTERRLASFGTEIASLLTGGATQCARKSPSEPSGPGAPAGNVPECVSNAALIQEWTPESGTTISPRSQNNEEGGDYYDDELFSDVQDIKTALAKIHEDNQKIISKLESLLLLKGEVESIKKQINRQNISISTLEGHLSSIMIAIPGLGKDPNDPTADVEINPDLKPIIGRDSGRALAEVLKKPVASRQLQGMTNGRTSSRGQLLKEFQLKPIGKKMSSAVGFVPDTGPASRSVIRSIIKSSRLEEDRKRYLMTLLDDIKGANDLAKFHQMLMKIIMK
Chain of measles virus polymerase (P12576 whole entry): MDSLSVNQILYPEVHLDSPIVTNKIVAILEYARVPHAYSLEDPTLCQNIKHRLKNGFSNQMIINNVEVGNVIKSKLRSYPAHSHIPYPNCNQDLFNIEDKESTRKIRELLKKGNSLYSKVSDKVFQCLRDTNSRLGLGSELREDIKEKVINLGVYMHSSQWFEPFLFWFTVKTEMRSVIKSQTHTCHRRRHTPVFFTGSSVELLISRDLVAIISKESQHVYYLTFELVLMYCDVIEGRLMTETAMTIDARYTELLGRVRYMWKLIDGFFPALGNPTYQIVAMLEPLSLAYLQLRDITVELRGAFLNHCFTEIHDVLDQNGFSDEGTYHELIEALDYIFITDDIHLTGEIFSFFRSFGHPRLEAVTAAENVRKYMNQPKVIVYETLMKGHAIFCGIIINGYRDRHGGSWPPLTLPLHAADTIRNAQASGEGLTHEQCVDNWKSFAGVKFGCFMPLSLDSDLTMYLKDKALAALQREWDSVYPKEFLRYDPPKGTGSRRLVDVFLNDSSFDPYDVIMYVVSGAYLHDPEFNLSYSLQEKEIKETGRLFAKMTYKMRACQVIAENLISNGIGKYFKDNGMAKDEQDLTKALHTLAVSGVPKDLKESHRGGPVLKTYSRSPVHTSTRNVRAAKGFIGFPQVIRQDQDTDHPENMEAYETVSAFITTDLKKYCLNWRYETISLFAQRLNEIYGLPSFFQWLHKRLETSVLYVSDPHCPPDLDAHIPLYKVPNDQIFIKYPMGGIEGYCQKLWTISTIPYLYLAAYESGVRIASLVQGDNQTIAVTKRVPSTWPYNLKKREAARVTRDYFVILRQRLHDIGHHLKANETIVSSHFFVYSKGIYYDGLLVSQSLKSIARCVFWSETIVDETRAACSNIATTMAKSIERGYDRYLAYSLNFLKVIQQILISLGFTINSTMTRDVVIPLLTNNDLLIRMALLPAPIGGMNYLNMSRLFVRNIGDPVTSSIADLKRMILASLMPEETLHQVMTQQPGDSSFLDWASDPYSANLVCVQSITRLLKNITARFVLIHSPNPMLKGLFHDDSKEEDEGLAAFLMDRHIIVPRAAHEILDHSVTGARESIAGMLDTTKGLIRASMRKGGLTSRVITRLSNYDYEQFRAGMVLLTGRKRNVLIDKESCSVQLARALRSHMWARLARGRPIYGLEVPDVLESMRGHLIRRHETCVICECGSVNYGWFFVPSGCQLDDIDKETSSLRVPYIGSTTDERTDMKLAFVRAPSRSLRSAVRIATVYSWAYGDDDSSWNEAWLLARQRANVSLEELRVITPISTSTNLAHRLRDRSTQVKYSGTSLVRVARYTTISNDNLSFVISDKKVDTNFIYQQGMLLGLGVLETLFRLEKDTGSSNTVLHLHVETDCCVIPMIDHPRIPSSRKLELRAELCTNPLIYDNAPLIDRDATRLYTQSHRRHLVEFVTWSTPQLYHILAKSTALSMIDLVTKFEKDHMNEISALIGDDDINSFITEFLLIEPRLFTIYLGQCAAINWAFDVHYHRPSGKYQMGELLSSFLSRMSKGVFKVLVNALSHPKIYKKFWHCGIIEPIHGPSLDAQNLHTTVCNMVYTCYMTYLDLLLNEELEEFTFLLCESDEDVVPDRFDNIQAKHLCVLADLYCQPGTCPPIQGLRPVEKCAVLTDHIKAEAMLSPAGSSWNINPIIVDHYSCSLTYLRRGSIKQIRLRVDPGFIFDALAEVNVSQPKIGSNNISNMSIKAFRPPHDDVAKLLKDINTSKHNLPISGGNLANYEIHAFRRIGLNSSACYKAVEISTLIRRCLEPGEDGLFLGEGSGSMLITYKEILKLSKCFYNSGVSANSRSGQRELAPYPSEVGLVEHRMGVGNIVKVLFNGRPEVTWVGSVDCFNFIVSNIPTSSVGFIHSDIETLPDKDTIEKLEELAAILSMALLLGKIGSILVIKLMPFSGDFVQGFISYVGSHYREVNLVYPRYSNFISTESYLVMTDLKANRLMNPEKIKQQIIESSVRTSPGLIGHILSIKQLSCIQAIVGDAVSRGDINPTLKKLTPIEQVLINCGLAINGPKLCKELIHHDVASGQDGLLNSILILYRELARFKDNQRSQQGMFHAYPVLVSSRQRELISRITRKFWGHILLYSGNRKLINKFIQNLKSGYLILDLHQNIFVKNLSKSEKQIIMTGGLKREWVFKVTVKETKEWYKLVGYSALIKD

recRSV-mKate [7] = test: Lung histopathology of RSV-infected mice; conditions: 50 mg/kg initiated 12 hours after infection
Protocol: Mice were divided randomly into groups of 5, and infected intranasally with 500,000 TCID50 (25 μl/nare) of recRSV-mKate in Phosphate-Buffered Saline. Mice were anesthetized with ketamine/xylazine. Treatments were administrated via oral gavage in a 200 μl suspension of 1% Methylcellulose in water. Temperature and body weight were determined on a daily and twice-daily basis, respectively. Efficacy studies were terminated at peak viral replication at 4.5 days post-infection, mice were euthanized and lungs harvested and weighted.
For histopathology, mice were subjected to cervical dislocation 4.5 days after infection and lungs perfused with 10% NBF prior to extraction. Lungs were stored in 10% NBF for 24 hours, followed by incubation in 70% EtOH for two days and embedding into wax blocks, using a 21-hour alcohol-xylene-wax embedding sequence. Blocks were sectioned at ˜4 μm thickness, sections mounted onto microscopy slides, and stained with hematoxylin and eosin (H&E). Slides were examined by a board-certified veterinary pathologist, who was blinded to the treatment groups. Lesions were scored according to the following scale. […]

[8] = orally 50 mg/kg b.i.d., starting 12 hours after infection, compared to vehicle-treated

Row | Compound | HEp-2 C50 (second) (HEp-2 cells) [µM] | EC50 (recRSV-fireSMASh [1]) [nM] | EC50 (recRSV-fireSMASh [2]) [nM] | “F1” HAE C50 (second) (“F1” HAE) [µM] | “M4” HAE C50 (second) (“M4” HAE) [µM] | in vivo lung titer reduction in RSV-infected mice (recRSV-A2line19F-[mKate]; 50 mg/kg) | CC50 (HEp-2 cells) [nM] | Lung viral load reduction (log10 TCID50/ml) relative to vehicle-treated (recRSV-A2line19F-[mKate]) [log10 TCID50/ml] | reduction in lung viral load (recRSV-A2line19F-[mKate]; [8]) | further results
1 | COc1ccc(Cn2c3cc(=O)n(Cc4cccc(C(F)(F)F)n4)c(C)c3c(=O)n2-c2ncc(F)cc2F)cc1 [AVG-392] | 45 | 920 | 530 | 45 | 45 | – | – | – | – | –
2 | COc1ccc(Cn2c3cc(=O)n(Cc4cccc(Cl)n4)c(C)c3c(=O)n2-c2ccccn2)cc1 [AVG-233] | 50 | 360 | 110 | 45 | 45 | 50 mg/kg: −0.44 log 10 | – | – | – | CC50 at 48 h [3]: > 45000 nM; cytotoxicity (HEp-2 cells): very low cytotoxicity; EC50 (recRSV-fireSMASh L1502Q): > 100000 nM; EC50 (recRSV-fireSMASh Y1631H): 2190 nM; EC50 (recRSV-fireSMASh H1632Q): 4420 nM; increase in EC90 [4]: > 2000 fold; EC50 (recRSV-mKate [5]; human respiratory syncytial virus, 144 h): 70 nM; effect on tissue organization and tight junction integrity (3D-HAE; 200 μM, continued multi-day exposure, ZO-1 immunostaining and TEER): no negative effect on tissue organization and tight junction integrity; effect on epithelium integrity (3D-HAE; basolateral 5 μM, RSV-infected, 3 d.p.i.): without detectable negative effect; cytotoxicity [6]: well-tolerated without any signs of cytotoxicity
3 | Cn1nc(C(F)(F)F)cc1C(=O)Nc1ccc(S(=O)(=O)N2CCCC[C@H]2CCN2CCOCC2)cc1 [ERDRP-0519] | – | – | – | – | – | – | – | – | – | phosphodiester bond formation (measles virus polymerase): completely blocks all phosphodiesterbond formation
4 | COc1ccc(Cn2c3cc(=O)n(Cc4cccc(Cl)n4)c(C)c3c(=O)n2-c2ncc(F)cc2F)cc1 [AVG-391] | 45 | 350 | 300 | 45 | 45 | – | – | – | – | –
5 | O=c1nc(NO)ccn1[C@@H]1O[C@H](CO)[C@@H](O)[C@H]1O [NHC, reference compound] | – | – | – | – | – | – | – | – | – | EC50 (recRSV-mKate [5]): 50 nM
6 | COc1c(F)c(F)c(Cn2c3cc(=O)n(Cc4cccc(C(F)(F)F)n4)c(C)c3c(=O)n2-c2ccccn2)c(F)c1F [AVG-435] | 5 | – | – | – | – | 50 mg/kg: −0.44 log 10 | > 5000 | −0.44 | did not observe as much benefit | –
7 | Cc1c2c(=O)n(-c3ccccn3)n(Cc3c(Cl)cccc3Cl)c2cc(=O)n1Cc1cccc(C(F)(F)F)c1 [AVG-446] | – | – | – | – | – | 50 mg/kg: −0.61 log 10 | – | – | – | CC50 at 48 h [3]: > 5000 nM; in vivo lung titer reduction in RSV-infected mice (recRSV-A2line19F-[mKate]; 100 mg/kg): 100 mg/kg: −1.2 log 10
8 | COc1c(F)c(F)c(Cn2c3cc(=O)n(Cc4cccc(Cl)n4)c(C)c3c(=O)n2-c2ncc(F)cc2F)c(F)c1F [AVG-390] | 45 | 390 | 250 | 45 | 45 | 50 mg/kg: −0.50 log 10 | > 45000 | −0.5 | slightly lower antiviral effect | –
9 | COc1c(F)c(F)c(Cn2c3cc(=O)n(Cc4cccc(Cl)n4)c(C)c3c(=O)n2-c2ccccn2)c(F)c1F [AVG-389] | 5 | 160 | 70 | 45 | 45 | – | – | – | – | –
10 | COc1ccc(Cn2c3cc(=O)n(Cc4cccc(C(F)(F)F)n4)c(C)c3c(=O)n2-c2ccccn2)cc1 [AVG-436] | 5 | – | – | – | – | 50 mg/kg: −0.89 log 10 | > 5000 | −0.89 | 0.89 (±0.14) log 10 TCID50/ml | –
11 | Cc1c2c(=O)n(-c3ccccn3)n(Cc3c(Cl)cccc3Cl)c2cc(=O)n1Cc1cccc(C(F)(F)F)n1 [AVG-445] | 5 | – | – | – | – | 50 mg/kg: −1.1 log 10 | > 5000 | −1.1 | 1.1 (±0.16) log 10 TCID50/ml | in vivo lung titer reduction in RSV-infected mice (recRSV-A2line19F-[mKate]; 100 mg/kg): 100 mg/kg: −1.9 log 10
12 | COc1c(F)c(F)c(Cn2c3cc(=O)n(Cc4cccc(C(F)(F)F)n4)c(C)c3c(=O)n2-c2ncc(F)cc2F)c(F)c1F [AVG-388] | 10 | 130 | 150 | 10 | 10 | 50 mg/kg: −1.3 log 10 | – | – | 1.3 (±0.25) log 10 TCID50/ml | CC50 at 48 h [3]: > 45000 nM; cytotoxicity (HEp-2 cells): very low cytotoxicity; EC50 (recRSV-fireSMASh L1502Q): > 100000 nM; EC50 (recRSV-fireSMASh Y1631H): 2720 nM; EC50 (recRSV-fireSMASh H1632Q): 4810 nM; disease progression to viral pneumonia (histopathology) (recRSV-mKate [7]): prevented disease progression to viral pneumonia; vasculitis and perivascular cuffing (histopathology) (recRSV-mKate [7]): Only one animal of the AVG-388 group showed mild vasculitis and perivascular cuffing; in vivo lung titer reduction in RSV-infected mice (recRSV-A2line19F-[mKate]; 150 mg/kg): 150 mg/kg: −1.9 log 10; adverse effects (bodyweight and temperature) (recRSV-A2line19F-[mKate]; orally 150 mg/kg b.i.d.): without any signs of adverse effects; reduction in lung viral load (recRSV-A2line19F-[mKate]; orally 150 mg/kg b.i.d.): 1.9 (±0.23) log 10 TCID50/ml

From patent publication US20240352013A1, “BICYCLIC FUSED PYRAZOLE DERIVATIVES FOR THE TREATMENT OF RESPIRATORY INFECTIONS INCLUDING RSV” (GEORGIA STATE UNIVERSITY RESEARCH FOUNDATION, INC., priority 2021, published 2024)
